Active and inactive are the calls of the source. The rule behind the calls is not given here.
Tested on: Mus musculus
Assay: Anticonvulsant activity in Kunming mouse assessed as protection against maximal electroshock-induced seizures measured as abolition of hind limb tonic extension spasm at 300 mg/kg, ip after 4 hrs
Format: functional, organism-based
Set-up: dose 300 mg/kg
Details: Hindlimb

Row | SMILES | Activity
1 | CCCCS(=O)(=O)NCCNC(=O)NC1(C(=O)OCC)CC1(C)C (racemic) | inactive
2 | CCOC(=O)C1(NC(=O)NCCNS(=O)(=O)N(C)C)CC1(C)C (racemic) | inactive
3 | CCOC(=O)C1(NC(=O)NCCNS(=O)(=O)c2cccs2)CC1(C)C (racemic) | inactive
4 | CCOC(=O)C1(NC(=O)NCCNS(=O)(=O)c2ccc(C)cc2)CC1(C)C (racemic) | Active
5 | CCOC(=O)C1(NC(=O)NCCNS(=O)(=O)c2ccc([N+](=O)[O-])cc2)CC1(C)C (racemic) | inactive
6 | CCOC(=O)C1(NC(=O)NCCNS(=O)(=O)c2cccc([N+](=O)[O-])c2)CC1(C)C (racemic) | inactive
7 | CCOC(=O)C1(NC(=O)NCCNS(=O)(=O)c2c(C(C)C)cc(C(C)C)cc2C(C)C)CC1(C)C (racemic) | inactive
8 | CCC1(C)CC(=O)NC1=O (stereo not given) [ETHOSUXIMIDE] | inactive

Tested on: Mus musculus
Assay: Neurotoxicity in Kunming mouse assessed as motor impairment at 300 mg/kg, ip after 4 hrs by standardized rotarod test
Format: toxicity, organism-based
Set-up: dose 300 mg/kg, route intraperitoneal
Details: in vivo

Row | SMILES | Activity
9 | CCCCS(=O)(=O)NCCN1C(=O)NC2(CC2(C)C)C1=O (racemic) | Non-toxic
10 | CCCCS(=O)(=O)NCCNC(=O)NC1(C(=O)OCC)CC1(C)C (racemic) | Non-toxic
11 | CCOC(=O)C1(NC(=O)NCCNS(=O)(=O)N(C)C)CC1(C)C (racemic) | Non-toxic
12 | CCOC(=O)C1(NC(=O)NCCNS(=O)(=O)c2cccs2)CC1(C)C (racemic) | Non-toxic
13 | CCOC(=O)C1(NC(=O)NCCNS(=O)(=O)c2ccc(C)cc2)CC1(C)C (racemic) | Non-toxic
14 | CCOC(=O)C1(NC(=O)NCCNS(=O)(=O)c2ccc(F)cc2)CC1(C)C (racemic) | Non-toxic
15 | CCOC(=O)C1(NC(=O)NCCNS(=O)(=O)c2ccc([N+](=O)[O-])cc2)CC1(C)C (racemic) | Non-toxic
16 | CCOC(=O)C1(NC(=O)NCCNS(=O)(=O)c2cccc([N+](=O)[O-])c2)CC1(C)C (racemic) | Non-toxic
17 | CCOC(=O)C1(NC(=O)NCCNS(=O)(=O)c2c(C(C)C)cc(C(C)C)cc2C(C)C)CC1(C)C (racemic) | Non-toxic
18 | CCC1(C)CC(=O)NC1=O (stereo not given) [ETHOSUXIMIDE] | Non-toxic

Tested on: Mus musculus
Assay: Anticonvulsant activity in Kunming mouse assessed as protection against maximal electroshock-induced seizures measured as abolition of hind limb tonic extension spasm at 100 mg/kg, ip after 4 hrs
Format: functional, organism-based
Set-up: dose 100 mg/kg
Details: Hindlimb

Row | SMILES | Activity
19 | CCCCS(=O)(=O)NCCN1C(=O)NC2(CC2(C)C)C1=O (racemic) | Active
20 | CCOC(=O)C1(NC(=O)NCCNS(=O)(=O)c2ccc(F)cc2)CC1(C)C (racemic) | Active

Tested on: Mus musculus
Assay: Anticonvulsant activity in Kunming mouse assessed as protection against subcutaneous pentylenetetrazole-induced seizures at 300 mg/kg, ip after 4 hrs
Format: functional, organism-based
Set-up: dose 300 mg/kg
Details: not given

Row | SMILES | Activity
21 | CCCCS(=O)(=O)NCCN1C(=O)NC2(CC2(C)C)C1=O (racemic) | inactive
22 | CCCCS(=O)(=O)NCCNC(=O)NC1(C(=O)OCC)CC1(C)C (racemic) | inactive
23 | CCOC(=O)C1(NC(=O)NCCNS(=O)(=O)N(C)C)CC1(C)C (racemic) | inactive
24 | CCOC(=O)C1(NC(=O)NCCNS(=O)(=O)c2cccs2)CC1(C)C (racemic) | inactive
25 | CCOC(=O)C1(NC(=O)NCCNS(=O)(=O)c2ccc(C)cc2)CC1(C)C (racemic) | inactive
26 | CCOC(=O)C1(NC(=O)NCCNS(=O)(=O)c2ccc(F)cc2)CC1(C)C (racemic) | inactive
27 | CCOC(=O)C1(NC(=O)NCCNS(=O)(=O)c2ccc([N+](=O)[O-])cc2)CC1(C)C (racemic) | inactive
28 | CCOC(=O)C1(NC(=O)NCCNS(=O)(=O)c2cccc([N+](=O)[O-])c2)CC1(C)C (racemic) | inactive
29 | CCOC(=O)C1(NC(=O)NCCNS(=O)(=O)c2c(C(C)C)cc(C(C)C)cc2C(C)C)CC1(C)C (racemic) | inactive
30 | CCC1(C)CC(=O)NC1=O (stereo not given) [ETHOSUXIMIDE] | Active

Tested on: Mus musculus
Assay: Anticonvulsant activity in Kunming mouse assessed as protection against subcutaneous pentylenetetrazole-induced seizures at 300 mg/kg, ip after 0.5 hrs
Format: functional, organism-based
Set-up: dose 300 mg/kg
Details: not given

Row | SMILES | Activity
31 | CCCCS(=O)(=O)NCCN1C(=O)NC2(CC2(C)C)C1=O (racemic) | inactive
32 | CCCCS(=O)(=O)NCCNC(=O)NC1(C(=O)OCC)CC1(C)C (racemic) | inactive
33 | CCOC(=O)C1(NC(=O)NCCNS(=O)(=O)N(C)C)CC1(C)C (racemic) | inactive
34 | CCOC(=O)C1(NC(=O)NCCNS(=O)(=O)c2cccs2)CC1(C)C (racemic) | inactive
35 | CCOC(=O)C1(NC(=O)NCCNS(=O)(=O)c2ccc(C)cc2)CC1(C)C (racemic) | inactive
36 | CCOC(=O)C1(NC(=O)NCCNS(=O)(=O)c2ccc(F)cc2)CC1(C)C (racemic) | inactive
37 | CCOC(=O)C1(NC(=O)NCCNS(=O)(=O)c2ccc([N+](=O)[O-])cc2)CC1(C)C (racemic) | inactive
38 | CCOC(=O)C1(NC(=O)NCCNS(=O)(=O)c2cccc([N+](=O)[O-])c2)CC1(C)C (racemic) | inactive
39 | CCOC(=O)C1(NC(=O)NCCNS(=O)(=O)c2c(C(C)C)cc(C(C)C)cc2C(C)C)CC1(C)C (racemic) | inactive

Tested on: Mus musculus
Assay: Neurotoxicity in Kunming mouse assessed as motor impairment at 300 mg/kg, ip after 0.5 hrs by standardized rotarod test
Format: toxicity, organism-based
Set-up: dose 300 mg/kg, route intraperitoneal
Details: in vivo

Row | SMILES | Activity
40 | CCCCS(=O)(=O)NCCN1C(=O)NC2(CC2(C)C)C1=O (racemic) | Non-toxic
41 | CCCCS(=O)(=O)NCCNC(=O)NC1(C(=O)OCC)CC1(C)C (racemic) | Non-toxic
42 | CCOC(=O)C1(NC(=O)NCCNS(=O)(=O)N(C)C)CC1(C)C (racemic) | Non-toxic
43 | CCOC(=O)C1(NC(=O)NCCNS(=O)(=O)c2cccs2)CC1(C)C (racemic) | Toxic
44 | CCOC(=O)C1(NC(=O)NCCNS(=O)(=O)c2ccc(C)cc2)CC1(C)C (racemic) | Non-toxic
45 | CCOC(=O)C1(NC(=O)NCCNS(=O)(=O)c2ccc(F)cc2)CC1(C)C (racemic) | Non-toxic
46 | CCOC(=O)C1(NC(=O)NCCNS(=O)(=O)c2ccc([N+](=O)[O-])cc2)CC1(C)C (racemic) | Non-toxic
47 | CCOC(=O)C1(NC(=O)NCCNS(=O)(=O)c2cccc([N+](=O)[O-])c2)CC1(C)C (racemic) | Non-toxic
48 | CCOC(=O)C1(NC(=O)NCCNS(=O)(=O)c2c(C(C)C)cc(C(C)C)cc2C(C)C)CC1(C)C (racemic) | Non-toxic
49 | CCC1(C)CC(=O)NC1=O (stereo not given) [ETHOSUXIMIDE] | Non-toxic

Tested on: Mus musculus
Assay: Anticonvulsant activity in Kunming mouse assessed as protection against maximal electroshock-induced seizures measured as abolition of hind limb tonic extension spasm at 300 mg/kg, ip after 0.5 hrs
Format: functional, organism-based
Set-up: dose 300 mg/kg
Details: Hindlimb

Row | SMILES | Activity
50 | CCOC(=O)C1(NC(=O)NCCNS(=O)(=O)N(C)C)CC1(C)C (racemic) | inactive
51 | CCOC(=O)C1(NC(=O)NCCNS(=O)(=O)c2cccs2)CC1(C)C (racemic) | Active
52 | CCOC(=O)C1(NC(=O)NCCNS(=O)(=O)c2ccc([N+](=O)[O-])cc2)CC1(C)C (racemic) | inactive
53 | CCOC(=O)C1(NC(=O)NCCNS(=O)(=O)c2cccc([N+](=O)[O-])c2)CC1(C)C (racemic) | inactive
54 | CCOC(=O)C1(NC(=O)NCCNS(=O)(=O)c2c(C(C)C)cc(C(C)C)cc2C(C)C)CC1(C)C (racemic) | Active
55 | CCC1(C)CC(=O)NC1=O (stereo not given) [ETHOSUXIMIDE] | inactive

Tested on: Mus musculus
Assay: Anticonvulsant activity in Kunming mouse assessed as protection against subcutaneous pentylenetetrazole-induced seizures at 100 mg/kg, ip after 0.5 hrs
Format: functional, organism-based
Set-up: dose 100 mg/kg
Details: not given

Row | SMILES | Activity
56 | CCC1(C)CC(=O)NC1=O (stereo not given) [ETHOSUXIMIDE] | Active

Tested on: Mus musculus
Assay: Anticonvulsant activity in Kunming mouse assessed as protection against maximal electroshock-induced seizures measured as abolition of hind limb tonic extension spasm at 100 mg/kg, ip after 0.5 hrs
Format: functional, organism-based
Set-up: dose 100 mg/kg
Details: Hindlimb

Row | SMILES | Activity
57 | CCCCS(=O)(=O)NCCN1C(=O)NC2(CC2(C)C)C1=O (racemic) | Active
58 | CCCCS(=O)(=O)NCCNC(=O)NC1(C(=O)OCC)CC1(C)C (racemic) | Active
59 | CCOC(=O)C1(NC(=O)NCCNS(=O)(=O)c2ccc(C)cc2)CC1(C)C (racemic) | Active
60 | CCOC(=O)C1(NC(=O)NCCNS(=O)(=O)c2ccc(F)cc2)CC1(C)C (racemic) | Active

— ChEMBL document CHEMBL3407485, “Design, synthesis and pharmacological evaluation of novel N-(2-(1, 1-dimethyl-5, 7-dioxo-4, 6-diazaspiro[2.4]heptan-6-yl)ethyl) sulfonamide derivatives as potential anticonvulsant agents” (Eur J Med Chem, 2015)
